Results on two compounds are retold here after PMC5824918, “HMG-CoA reductase from Camphor Tulsi (Ocimum kilimandscharicum) regulated MVA dependent biosynthesis of diverse terpenoids in homologous and heterologous plant systems” (Scientific Reports, 2018).

This assay relates to T1, OkHMGR.
T1 construct: gene HMGR; cDNA from leaf
In words: spectrophotometric NADPH oxidation at […] nm, Lineweaver-Burk plot. Format: biochemical, Ocimum kilimandscharicum. The settings on record: 7.5 mM DTT, 150 mM potassium phosphate pH 7.0, 30 °C.

A word on the Km: it is the concentration of substrate that gives half-maximal velocity.

For `CC(C)(COP(=O)(O)OP(=O)(O)OC[C@H]1O[C@@H](n2cnc3c(N)ncnc32)[C@H](O)[C@@H]1OP(=O)(O)O)[C@@H](O)C(=O)NCCC(=O)NCCSC(=O)C[C@@](C)(O)CC(=O)O` [HMG-CoA], the Km (co-substrate NADPH (3.0 mM in standard assay)) was 88 µM.
For the compound `NC(=O)C1=CN([C@@H]2O[C@H](COP(=O)(O)OP(=O)(O)OC[C@H]3O[C@@H](n4cnc5c(N)ncnc54)[C@H](OP(=O)(O)O)[C@@H]3O)[C@@H](O)[C@H]2O)C=CC1` [NADPH], under “co-substrate HMG-CoA (0.05 mM in standard assay)”, the Km came to 903 µM.
